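Test compounds were applied to cells in 96-well plates for 48 hours at 5 doses. GI50: concentration for 50% inhibition of growth. At the TGI there is no net growth.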 Some results are limits rather than exact numbers.

Among the test systems are KM12 colon; SK-MEL-2 melanoma; SNB-75 CNS; HT29 colon; SR leukemia; SF-268 CNS; UO-31 renal; ACHN renal; 786-0 renal; HCT-116 colon.
Common to all, as to assay: NCI anticancer screen, dose series, 48 h

Consider `CCN1CCN(CC(=O)Nc2nc3ccc(NCc4ccc(Cl)cc4)cc3s2)CC1`, for which the GI50 in the experiment on KM12 colon is 3.73 µM; with SK-MEL-2 melanoma it was 2.02 µM; in the experiment on SNB-75 CNS, 1.88 µM; in the experiment on HT29 colon, 2.02 µM; in the experiment on SR leukemia it was 2.78 µM; in the experiment on SF-268 CNS, 2.43 µM. Moreover, the GI50 with UO-31 renal is 1.62 µM; with ACHN renal, 2.22 µM; in the experiment with 786-0 renal, 6.38 µM; in the experiment with HCT-116 colon it was 3.21 µM. The TGI in the experiment with KM12 colon is more than 100 µM; in the experiment on SK-MEL-2 melanoma, 3.98 µM; with SNB-75 CNS, 4.5 µM; in the experiment with HT29 colon, 4.61 µM; in the experiment on SR leukemia it was 17 µM; in the experiment with SF-268 CNS it was 6.29 µM. Further, the TGI in the experiment on UO-31 renal was found to be 3.19 µM; in the experiment with ACHN renal, 5.02 µM; in the experiment with 786-0 renal it was 20.1 µM; in the experiment with HCT-116 colon, 11.7 µM.

In the case of `CC(=O)Nc1ccc(/C=N\N2C(=O)c3ccccc3C2=O)cc1`, the TGI in the experiment with KM12 colon, in the experiment on SK-MEL-2 melanoma, in the experiment with SNB-75 CNS, with HT29 colon, in the experiment with SR leukemia and with SF-268 CNS was more than 100 µM throughout. In addition, the TGI in the experiment on UO-31 renal, in the experiment on ACHN renal, with 786-0 renal and with HCT-116 colon was more than 100 µM in each case.

As for `CS(=O)(=O)c1ccc(-c2cnc(N)c(C(=O)Nc3ccccc3)n2)cc1`, the GI50 in the experiment on KM12 colon is more than 100 µM; with SK-MEL-2 melanoma, 7.87 µM; in the experiment on SNB-75 CNS it was 7.22 µM; with HT29 colon it was 7.5 µM; with SR leukemia, 2.39 µM; with SF-268 CNS, 25 µM. For the same molecule, the GI50 in the experiment with UO-31 renal is 5.45 µM; in the experiment on ACHN renal it was 3.92 µM; in the experiment with 786-0 renal it was 3.71 µM; in the experiment with HCT-116 colon it was 11.4 µM. Moreover, the TGI with KM12 colon is more than 100 µM; with SK-MEL-2 melanoma, more than 96 µM; in the experiment on SNB-75 CNS, more than 100 µM; in the experiment with HT29 colon it was more than 100 µM; with SR leukemia it was more than 100 µM; with SF-268 CNS, more than 100 µM. The TGI in the experiment with UO-31 renal was more than 42.8 µM; in the experiment with ACHN renal, 29.6 µM; with 786-0 renal it was more than 100 µM; in the experiment on HCT-116 colon, more than 100 µM.

Take `COC(=O)c1cc(-c2cc(OC)c(OC)c(OC)c2)[nH]c1N/N=C/c1c(Cl)cccc1Cl`: the GI50 is 0.801 µM in the experiment with KM12 colon; 3.01 µM in the experiment with SK-MEL-2 melanoma; 0.941 µM in the experiment on SNB-75 CNS; 3.18 µM in the experiment on HT29 colon; 0.926 µM with SR leukemia; 1.35 µM with SF-268 CNS. Further, the GI50 in the experiment on UO-31 renal is 0.837 µM; in the experiment with ACHN renal, 0.963 µM; in the experiment with 786-0 renal, 2.03 µM; in the experiment with HCT-116 colon, 1.11 µM. Further, the TGI in the experiment with KM12 colon is 6.94 µM; with SK-MEL-2 melanoma, 17.9 µM; with SNB-75 CNS it was 4.62 µM; in the experiment with HT29 colon, more than 82.4 µM; with SR leukemia, more than 100 µM; in the experiment with SF-268 CNS, 11.2 µM. Further, the TGI with UO-31 renal was 4.51 µM; in the experiment with ACHN renal it was 9.17 µM; in the experiment with 786-0 renal it was 7.18 µM; with HCT-116 colon, more than 33 µM.

Consider `NC(=O)c1oc([N+](=O)[O-])c(-c2ccccc2)c1-c1ccccc1`, for which the TGI in the experiment on KM12 colon is 40.9 µM; in the experiment with SK-MEL-2 melanoma it was 36.3 µM; in the experiment with SNB-75 CNS, more than 100 µM; in the experiment on HT29 colon, more than 100 µM; in the experiment with SR leukemia, 34.2 µM; in the experiment with SF-268 CNS, more than 100 µM. The TGI stood at 52.2 µM in the experiment on UO-31 renal, 82 µM with ACHN renal, 89.7 µM with 786-0 renal and 36 µM in the experiment with HCT-116 colon.

`CS(=O)(=O)OCCn1cnc2nc(NC(=O)c3ccccc3)[nH]c(=O)c21`: the TGI in the experiment with KM12 colon, in the experiment with SK-MEL-2 melanoma, in the experiment on SNB-75 CNS, in the experiment with HT29 colon, with SR leukemia and in the experiment on SF-268 CNS was more than 100 µM each time. In addition, the TGI in the experiment on UO-31 renal, with ACHN renal, in the experiment with 786-0 renal and in the experiment with HCT-116 colon was more than 100 µM each time.

On to `Cc1nc2cnc3cc(F)c(-c4ccc(Oc5ncccn5)cc4Cl)cc3c2n1[C@H]1CCN(C(=O)CO)C[C@@H]1F`, for which the GI50 with KM12 colon was 0.0405 µM; with SK-MEL-2 melanoma, 0.059 µM; with SNB-75 CNS it was 12 µM; in the experiment with HT29 colon, 0.0513 µM; in the experiment on SR leukemia, 13.3 µM; with SF-268 CNS it was 6.12 µM. Further, the GI50 with UO-31 renal was 1.78 µM; with ACHN renal it was 8.19 µM; in the experiment with 786-0 renal, 8.47 µM; with HCT-116 colon, 0.255 µM. In addition, the TGI in the experiment with KM12 colon was more than 100 µM; with SK-MEL-2 melanoma, 0.536 µM; in the experiment with SNB-75 CNS it was 36.2 µM; with HT29 colon, 16.9 µM; with SR leukemia it was 54.4 µM; in the experiment with SF-268 CNS it was more than 100 µM. Further, the TGI in the experiment on UO-31 renal was 24.4 µM; in the experiment on ACHN renal it was more than 100 µM; in the experiment with 786-0 renal it was more than 100 µM; in the experiment with HCT-116 colon it was 15.4 µM.

As to `NC1=C(Br)C(=O)c2ncccc2C1=O`, the TGI in the experiment with KM12 colon came out at 2.7 µM; with SK-MEL-2 melanoma it was 1.49 µM; in the experiment on SNB-75 CNS, 0.664 µM; in the experiment with HT29 colon it was 4.3 µM; in the experiment with SR leukemia, 1.84 µM; with SF-268 CNS it was 1.92 µM. Moreover, the TGI in the experiment with UO-31 renal stood at 1.07 µM; in the experiment with ACHN renal, 1.62 µM; in the experiment with 786-0 renal, 2.99 µM; in the experiment on HCT-116 colon it was 0.807 µM.

Consider `C/C([O-])=C1\Cc2ccccc2C1=O.C/C([O-])=C1\Cc2ccccc2C1=O.CC[O-].CC[O-].[Ti+4]`, for which the GI50 in the experiment with KM12 colon is 17.3 µM; in the experiment with SK-MEL-2 melanoma, 13.5 µM; in the experiment with SNB-75 CNS, 21.6 µM; in the experiment on HT29 colon, 31.9 µM; in the experiment on SR leukemia it was 19.1 µM; in the experiment on SF-268 CNS, 17.1 µM. For the same molecule, the GI50 with UO-31 renal was 20.2 µM; with ACHN renal it was 19.1 µM; in the experiment with 786-0 renal it was 20.8 µM; with HCT-116 colon it was 17.3 µM. Moreover, the TGI in the experiment with KM12 colon is 46.1 µM; with SK-MEL-2 melanoma, 33.6 µM; in the experiment on SNB-75 CNS it was 45.9 µM; with HT29 colon, more than 100 µM; with SR leukemia, more than 79.9 µM; with SF-268 CNS, 47.3 µM. Moreover, the TGI with UO-31 renal was 70.6 µM; with ACHN renal it was more than 92.2 µM; with 786-0 renal, 77.6 µM; with HCT-116 colon, more than 61.3 µM.

The values are drawn from PubChem BioAssay (NCI).
